In patent publication US20050119276A1, “Methods of treating inflammatory bowel disease using NF-kB inhibitors” (Wyeth, priority 2003, published 2005):
Each block holds one molecule with its values, some of them ahead of it.

What was measured:
immature female rats = assay: Effect on uterine wet weights in immature female rats; assay type: in vivo, rat
Protocol: Animals were treated once per day by gavage for three days. Following euthanasia on day four (24 h after the last dose) the uteri were removed, stripped of remaining fat and mesentery and weighed. The dose of the compound of example 3 chosen (50 mg/kg) was 500 fold higher than the efficacious dose in the above experiments.

HLA-B27 rats [1] = assay: Stool character in the HLA rat standard pharmacological test procedure; assay type: in vivo
Protocol: (§1) A representative NF-kB selective ER ligand was evaluated in the HLA rat standard pharmacological test procedure, which emulates inflammatory bowel disease in humans. The following briefly describes the procedure used and results obtained. Male HLA-B27 rats were obtained from Taconic and provided unrestricted access to a food (PMI Lab diet 5001) and water. At the start of the study, rats were 22-26 weeks old.
(§2) Rats were dosed orally once per day for 5 days with one of the regimens listed below. There were five rats in each group and the last dose was administered two hours before euthanasia. • vehicle (50% DMSO/50% Dulbecco's PBS) • 17α-ethinyl-17β-estradiol (EE, 10 μg/kg) • Compound A (150 μg/kg) • Compound A (50 μg/kg) • Compound A (1.5 μg/kg) Stool quality was observed daily and graded according to the following scale: Diarrhea=3; soft stool=2; normal stool=1. At the end of the study, serum was collected and stored at −70° C. A section of colon was prepared for histological analysis and an additional segment was analyzed for myeloperoxidase activity.

HLA-B27 rats [2] = assay: Histological scoring of disease severity in the colon of HLA-B27 rats; assay type: in vivo, rat; settings: for Fibrosis (0-2) / Inflammation (0-3) / Lesion depth (0-2) / Total score / Ulceration (0-2): histological score, colon
Protocol: as §1, §2
Histological analysis. Colonic tissue was immersed in 10% neutral buffered formalin. Each specimen of colon was separated into four samples for evaluation. The formalin-fixed tissues were processed in a Tissue Tek vacuum infiltration processor (Miles, Inc; West Haven, Conn.) for paraffin embedding. The samples were sectioned at 5 μm and then stained with hematoxylin and eosin (H&E) for blinded histologic evaluations using a scale modified after Boughton-Smith. Sections of colonic tissue were evaluated for several disease indicators and given relative scores. After the scores were completed the samples were unblinded, and data were tabulated and analyzed by ANOVA linear modeling with multiple mean comparisons.

HLA-B27 rats [3] = assay: Myeloperoxidase activity in colon of HLA-B27 rats (neutrophil infiltration); assay type: in vivo, rat
Protocol: as §1
Rats were dosed orally once per day for 5 days with one of the regimens listed below. […] A section of colon was prepared for histological analysis and an additional segment was analyzed for myeloperoxidase activity.
Myeloperoxidase activity [Bradley, et al., Blood 60: 618-622 (1982)]. Myeloperoxidase activity was assessed as a measure of neutrophil infiltration into the colon. […]
Tissue was resuspended and homogenized in 2.5ml (1:5 w/v) of 50 mM H2KPO4 with 10 mM EDTA and 0.5% Hex Ammonium Bromide to help solubilize the intracellular MPO. […] The supernatant was analyzed following these steps.
The test mixture was prepared by adding 2.9 ml of 50 mM H2KPO4 with 0.167 O-Dianisidine/ml with 0.0005% H2O2 into a reaction tube. […] OD was measured every 2 minutes reaction time at 460 nm against a blank containing 2.9 ml of the reaction mixture and 100 μl of the 0.5% ammonium bromide solution. […]

[4] = 1.5 mcg/kg orally once per day for 5 days
[5] = 50 mcg/kg orally once per day for 5 days
[6] = 150 mcg/kg orally once per day for 5 days

Uterine wet weight (immature female rats; 1.5 μg/kg (EC80)): significantly stimulated
SMILES: C#C[C@]1(O)CC[C@H]2[C@@H]3CCc4cc(O)ccc4[C@H]3CC[C@@]21C [17α-ethinylestradiol, 17α-ethinyl-17β-estradiol, reference compound]

melting point: 186 to 188 °C
SMILES: COc1cc(OC)cc(N2CCN(C(=O)[C@](C)(C#N)[C@H](c3ccccc3OC)c3cccc4ccccc34)CC2)c1 [Example 4, (S)-3-[4-(3,5-dimethoxyphenyl)piperazin-1-yl]-2-[(S)-(2-methoxyphenyl)(1-naphthyl)methyl]-2-methyl-3-oxopropanenitrile]

melting point: 188 °C
Uterine wet weight (immature female rats; 50 mg/kg orally once per day for three days): no increase
SMILES: CC1c2cc(F)ccc2-c2ccccc2N1S(=O)(=O)c1ccc(O)cc1 (centres unmarked) [Example 3, 4-[(8-Fluoro-6-methylphenanthridin-5(6H)-yl)sulfonyl]phenol]
Stool score (HLA-B27 rats [1]; 1.5 μg/kg oral): No effect
Stool score (HLA-B27 rats [1]; 50 μg/kg oral): No effect
Stool score (HLA-B27 rats [1]; 150 μg/kg oral, after 4 days of treatment): improvement in stool score
All disease parameters measured (ulcerations, lesions, fibrosis, inflammatory cells), colon histology (HLA-B27 rats [2]; 50 μg/kg oral): significantly improved
All disease parameters measured (ulcerations, lesions, fibrosis, inflammatory cells), colon histology (HLA-B27 rats [2]; 150 μg/kg oral): significantly improved
Fibrosis (0-2) (HLA-B27 rats [2]; [4]): 0.94 ± 0.52
Inflammation (0-3) (HLA-B27 rats [2]; [4]): 2.50 ± 0.35
Lesion depth (0-2) (HLA-B27 rats [2]; [4]): 1.1 ± 0.35
Total score (HLA-B27 rats [2]; [4]): 5.75 ± 1.41
Ulceration (0-2) (HLA-B27 rats [2]; [4]): 1.25 ± 0.24
Fibrosis (0-2) (HLA-B27 rats [2]; [5]): 0.38 ± 0.32
Inflammation (0-3) (HLA-B27 rats [2]; [5]): 1.69 ± 0.52
Lesion depth (0-2) (HLA-B27 rats [2]; [5]): 0.56 ± 0.24
Total score (HLA-B27 rats [2]; [5]): 3.25 ± 1.0
Ulceration (0-2) (HLA-B27 rats [2]; [5]): 0.63 ± 0.25
Fibrosis (0-2) (HLA-B27 rats [2]; [6]): 0.19 ± 0.24
Inflammation (0-3) (HLA-B27 rats [2]; [6]): 1.50 ± 0.20
Lesion depth (0-2) (HLA-B27 rats [2]; [6]): 0.31 ± 0.24
Total score (HLA-B27 rats [2]; [6]): 2.38 ± 0.83
Ulceration (0-2) (HLA-B27 rats [2]; [6]): 0.38 ± 0.32
MPO activity in colon (HLA-B27 rats [3]; 150 μg/kg oral): effectively inhibit MPO activity
MPO activity in colon (HLA-B27 rats [3]; the lower doses (50 and 1.5 μg/kg) oral): no effect
